Assay results as given in patent US6723710B2, “Compositions for inhibiting arginase activity” (The Trustees of the University of Pennsylvania, priority 1997, dated 2004).
Entries after “also recorded” stand apart in the source; their conditions may differ.

Legend:
rat liver arginase = molecular target: T1, rat liver arginase (Rattus norvegicus, UniProt P07824); experiment: [14C-guanidino]-arginine arginase activity assay (Example 2); type: biochemical; settings: 100 millimolar CHES, pH 9.0, 1 millimolar arginine; read-out: IC50 for inhibition of arginase
T1 sequence (P07824 1-323): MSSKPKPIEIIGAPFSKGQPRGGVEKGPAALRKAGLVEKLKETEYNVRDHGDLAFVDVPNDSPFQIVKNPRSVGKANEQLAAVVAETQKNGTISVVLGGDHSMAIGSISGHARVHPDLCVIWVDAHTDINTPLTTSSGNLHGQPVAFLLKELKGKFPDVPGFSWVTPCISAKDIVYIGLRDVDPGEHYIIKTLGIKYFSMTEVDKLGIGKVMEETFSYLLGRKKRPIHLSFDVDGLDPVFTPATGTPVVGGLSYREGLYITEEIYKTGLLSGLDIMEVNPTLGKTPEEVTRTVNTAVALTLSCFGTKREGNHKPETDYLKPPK
Protocol: Arginase activity was assessed using the ^(14C-guanidino)-arginine assay of Rüegg et al. (1980, Anal. Biochem. 102:206-212), as described (Reczkowski et al., 1994, Arch. Biochem. Biophys. 312:31-37). […] […] et al., 1994, Biochem. Biophys. Res.

[1] = tested on: penile corpus cavernosum smooth muscle; experiment: organ bath, NANC nerve-mediated relaxation of penile corpus cavernosum tissue strips; set-up: species or system rabbit
From the text: Penile cavernosal tissue strips were obtained from male New Zealand white rabbits (3.0-3.5 kilogram body weight) and mounted in organ bath preparations, as described (Kim et al., 1991, J. Clin. Invest. 88:112-118). Tissues strips at optimal isometric tension were contracted using 40 nanomolar endothelin-1 and subjected to electrical field stimulation (EFS), by means of two platinum plate electrodes positioned on either side of the tissue and a current amplifier in series with a square pulse stimulator. Each stimulation period lasted 20 seconds with trains of square waves having a pulse duration of 0.5 milliseconds and a potential difference of 10 volts. Frequency was varied from 1 to 10 Hertz. For all experiments, NANC responses were isolated in tissue strips by treatment with indomethacin to inhibit vasoactive prostanoid synthesis, 10 micromolar bretylium to inhibit adrenergic neurotransmission, and 1 micromolar atropine to block muscarinic acetylcholine receptors. All tissues were first subject to EFS in the absence of ABHA, and then stimulations were repeated in the presence of increasing concentrations (0.1 to 1.0 millimolar) ABHA following a 20 minute incubation period. […] Responses were further analyzed by determining the ratios of the responses in the presence and absence of ABHA treatment.

arginase = molecular target: T2, arginase (Rattus norvegicus, UniProt P07824); experiment: dialysis/dilution reversibility experiments with pre-incubated arginase-inhibitor complex; type: biochemical; set-up: made in house
T2 sequence (P07824 1-323): T1 sequence (P07824 1-323)
Protocol: Dialysis experiments of arginase with the arginase-compound 7 and arginase-compound 15 complexes were performed in following way. Thirty microliters of arginase at a concentration of 11.2 milligrams per milliliter were pre-incubated for thirty minutes with an appropriate concentration of compound 7 (5 microliters of 100 micromolar stock solution). […] Pre-incubates were then added to bicine buffer containing 4 millimolar compound 18. The final volume of the assay reaction solution was 1 milliliter.

In the case of `N[C@@H](CCCCB(O)O)C(=O)O` [compound 7, 2(S)-amino-6-boronohexanoic acid], the IC50 (rat liver arginase) is reported as 800 nM, the “enhancement of relaxation in response to EFS” value ([1]; 0.1 to 1.0 millimolar ABHA, 1 to 10 Hertz) is reported as “significant enhancement; also recorded: significantly enhanced relaxation; also recorded: statistically significant” and the “relaxation in the absence of electrical stimulation” value ([1]; corpus cavernosum strips contracted with endothelin-1) is reported as “moderate relaxation”. The “inhibited velocity, control without pre-incubation” value (arginase; 9.6 micromolar arginase, 0.5 micromolar ABHA) was 0.47 micromolar per minute, the reversibility of inhibition (arginase; 30 minutes pre-incubation) was “reversible inhibitor” and the “observed inhibited velocity, diluted pre-incubate” value (arginase; 30 minutes pre-incubation, diluted to 0.5 micromolar ABHA and 9.6 micromolar arginase) was 0.46 micromolar per minute. The reversibility of inhibition (arginase; 30 minutes pre-incubation, listed as ABHA) was “completely instantaneous reversible inhibition”.
